Test results: patent US9260429B2, “Pyrido[3,4-B]indoles and methods of use” (Medivation Technologies, Inc., priority 2008, dated 2016)

Key:
[1] = molecular target: T1, human recombinant adrenergic α1D receptor (Homo sapiens, UniProt P25100); test: Adrenergic α1D radioligand binding ([3H]Prozosin); conditions: 1 h; read-out: Percent Inhibition of ligand binding Adrenergic (1 μM ligand conc.) α1D
T1 construct: expressed in transfected cells; host or cells: HEK-293 cells
T1 sequence (P25100 1-572): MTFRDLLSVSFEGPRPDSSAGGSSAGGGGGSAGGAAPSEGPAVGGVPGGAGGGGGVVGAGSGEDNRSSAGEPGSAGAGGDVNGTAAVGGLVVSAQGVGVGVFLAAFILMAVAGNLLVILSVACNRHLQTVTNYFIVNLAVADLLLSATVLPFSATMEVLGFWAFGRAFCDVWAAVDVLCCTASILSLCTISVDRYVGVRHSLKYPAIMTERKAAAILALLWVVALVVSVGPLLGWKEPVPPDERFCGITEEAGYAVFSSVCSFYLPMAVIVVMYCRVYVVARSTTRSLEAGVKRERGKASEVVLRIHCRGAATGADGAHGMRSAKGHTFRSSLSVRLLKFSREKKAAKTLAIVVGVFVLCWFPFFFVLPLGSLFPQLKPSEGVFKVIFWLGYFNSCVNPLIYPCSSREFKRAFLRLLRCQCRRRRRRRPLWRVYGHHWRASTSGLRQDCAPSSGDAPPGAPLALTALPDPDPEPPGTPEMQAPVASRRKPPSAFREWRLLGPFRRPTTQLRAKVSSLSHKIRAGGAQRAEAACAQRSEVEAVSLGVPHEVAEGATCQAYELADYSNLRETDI
Protocol: To evaluate in radioligand binding assays the activity of compounds of the invention, human recombinant adrenergic a1D receptor expressed in human embryonic kidney (HEK-293) cells (Kenny, B. A. et al. Br. J. Pharmacol. 115(6):981, 1995) in a 50 mM Tris-HCl buffer, pH 7.4, was used. Compounds of invention were incubated with 0.6 nM [^3H]Prozosin for 60 minutes at 25° C. Non-specific binding was estimated in the presence of 10 μM phentolamine. Receptor proteins were filtered and washed, the filters were then counted to determine [^3H]Prozosin specifically bound. Compounds were screened at 1 μM or lower, using 1% DMSO as vehicle. Biochemical assay results are presented as the percent inhibition of specific binding in Table 4. Adrenergic a2A

[2] = molecular target: T2, human recombinant adrenergic α2A receptor (Homo sapiens, UniProt P08913); test: Adrenergic α2A radioligand binding ([3H]MK-912); conditions: 1 h; read-out: Percent Inhibition of ligand binding Adrenergic (1 μM ligand conc.) α2A
T2 construct: expressed in transfected cells; host or cells: insect Sf9 cells
T2 sequence (P08913 1-465): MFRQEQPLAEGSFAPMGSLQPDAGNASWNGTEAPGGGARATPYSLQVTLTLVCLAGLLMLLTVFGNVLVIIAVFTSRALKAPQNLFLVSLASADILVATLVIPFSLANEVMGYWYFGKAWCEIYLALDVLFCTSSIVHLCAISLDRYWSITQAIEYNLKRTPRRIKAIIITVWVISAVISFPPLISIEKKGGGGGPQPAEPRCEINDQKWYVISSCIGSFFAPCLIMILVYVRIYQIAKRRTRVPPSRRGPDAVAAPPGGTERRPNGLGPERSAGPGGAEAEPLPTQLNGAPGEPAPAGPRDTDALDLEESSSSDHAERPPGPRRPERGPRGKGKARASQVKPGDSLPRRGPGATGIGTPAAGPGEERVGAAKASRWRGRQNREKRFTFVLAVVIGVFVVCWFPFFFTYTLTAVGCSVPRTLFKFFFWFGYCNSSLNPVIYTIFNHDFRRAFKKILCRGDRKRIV
Protocol: To evaluate in radioligand binding assays the activity of compounds of the invention, human recombinant adrenergic α2A receptor expressed in insect Sf9 cells (Uhlen S et al. J Pharmacol Exp Ther. 271:1558, 1994) in a modified Tris-HCl buffer (50 mM Tris-HCl, pH 7.4, 12.5 mM MgCl2, 2 mM EDTA) was used. Compounds of invention were incubated with 1 nM [^3H]MK-912 for 60 minutes at 25° C. MK912 is (2S-trans)-1,3,4,5′,6,6′,7,12b-octahydro-1′,3′-dimethyl-spiro[2H-benzofuro[2,3-a]quinolizine-2,4′(1′H)-pyrimidin]-2′(3′H)-one hydrochloride Non-specific binding was estimated in the presence of 10 μM WB-4101 (2-(2,6-Dimethoxyphenoxyethyl)aminomethyl-1,4-benzodioxane hydrochloride). Receptor proteins were filtered and washed, the filters were then counted to determine [^3H]MK-912 specifically bound. Compounds were screened at 1 μM or lower, using 1% DMSO as vehicle. Biochemical assay results are presented as the percent inhibition of specific binding in Table 4.

[3] = molecular target: T3, human recombinant adrenergic α2B receptor (Homo sapiens, UniProt P18089); test: Adrenergic α2B radioligand binding ([3H]Rauwolscine); conditions: 1 h; read-out: Percent Inhibition of ligand binding Adrenergic (1 μM ligand conc.) α2B
T3 construct: expressed in transfected cells; host or cells: CHO-K1 cells
T3 sequence (P18089 1-450): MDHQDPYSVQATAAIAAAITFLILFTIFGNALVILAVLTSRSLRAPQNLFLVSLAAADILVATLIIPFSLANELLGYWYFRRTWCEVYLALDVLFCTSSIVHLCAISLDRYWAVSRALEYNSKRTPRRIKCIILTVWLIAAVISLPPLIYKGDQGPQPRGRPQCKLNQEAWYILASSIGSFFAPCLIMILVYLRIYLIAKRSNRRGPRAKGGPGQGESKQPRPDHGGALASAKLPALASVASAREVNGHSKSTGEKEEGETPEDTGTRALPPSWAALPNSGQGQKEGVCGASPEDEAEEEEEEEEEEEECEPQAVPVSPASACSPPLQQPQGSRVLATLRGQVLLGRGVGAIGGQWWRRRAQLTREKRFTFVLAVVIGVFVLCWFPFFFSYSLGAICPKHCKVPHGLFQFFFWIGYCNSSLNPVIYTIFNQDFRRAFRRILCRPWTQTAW
Protocol: To evaluate in radioligand binding assays the activity of compounds of the invention, human recombinant adrenergic α2B receptor expressed in Chinese hamster ovary (CHO-K1) cells (Uhlen S et al. Eur J. Pharmacol. 343(1):93, 1998) in a modified Tris-HCl buffer (50 mM Tris-HCl, pH 7.4, 12.5 mM MgCl2, 1 mM EDTA, 0.2% BSA) was used. Compounds of the invention were incubated with 2.5 nM [^3H]Rauwolscine for 60 minutes at 25° C. Non-specific binding was estimated in the presence of 10 μM Prozosin. Receptor proteins were filtered and washed, the filters were then counted to determine [^3H]Rauwolscine specifically bound. Compounds were screened at 1 μM or lower, using 1% DMSO as vehicle. Biochemical assay results are presented as the percent inhibition of specific binding in Table 4.

In the case of Cc1ccc2c(c1)c1c(n2CCc2ccc(C)nc2)CN(C)CC1 [Compound 1, 2,3,4,9-tetrahydro-2,6-dimethyl-9-(2-(6-methylpyridin-3-yl)ethyl)-1H-pyrido[3,4-b]indole], the inhibition at 1 µM [1] is reported as 65%, the inhibition at 1 µM [2] is reported as 74% and the inhibition at 1 µM [3] is reported as 99%.

Cc1ccc2c(c1)c1c(n2CCC2CCCCC2)CN(C)CC1 [Compound 2, 9-(2-cyclohexylethyl)-2,3,4,9-tetrahydro-2,6-dimethyl-1H-pyrido[3,4-b]indole] showed an inhibition at 1 µM [1] of 42%, an inhibition at 1 µM [2] of 81% and an inhibition at 1 µM [3] of 81%.

CN1CCc2c(n(CCc3ccc(F)cc3)c3ccc(Cl)cc23)C1 [Compound 3, 9-(4-fluorophenethyl)-6-chloro-2,3,4,9-tetrahydro-2-methyl-1H-pyrido[3,4-b]indole] gave an inhibition at 1 µM [1] of 77%, an inhibition at 1 µM [2] of 99% and an inhibition at 1 µM [3] of 108%.

For Cc1ccc2c(c1)c1c(n2CCc2ccc(C(F)(F)F)nc2)CN(C)CC1 [Compound 5, 9-(2-(6-(trifluoromethyl)pyridin-3-yl)ethyl)-2,3,4,9-tetrahydro-2,6-dimethyl-1H-pyrido[3,4-b]indole], the inhibition at 1 µM [1] was 64%, the inhibition at 1 µM [2] was 74% and the inhibition at 1 µM [3] was 83%.

CC(C)CCN(C)C(=O)Cn1c2c(c3cc(Cl)ccc31)CCN(C)C2 [Compound 14, 2-(6-chloro-1,2,3,4-tetrahydro-2-methylpyrido[3,4-b]indol-9-yl)-N-isopentyl-N-methylacetamide] showed an inhibition at 1 µM [1] of 33%, an inhibition at 1 µM [2] of 19% and an inhibition at 1 µM [3] of -16%.

For CN1CCc2c(n(CC(=O)Nc3ccc(F)cc3)c3ccc(Cl)cc23)C1 [Compound 15, 2-(6-chloro-1,2,3,4-tetrahydro-2-methylpyrido[3,4-b]indol-9-yl)-N-(4-fluorophenyl)acetamide], the inhibition at 1 µM [1] was 5%, the inhibition at 1 µM [2] was 15% and the inhibition at 1 µM [3] was 8%.

Work on CN1CCc2c(n(CC(=O)N(C)C)c3ccc(Cl)cc23)C1 [Compound 16, 2-(6-chloro-1,2,3,4-tetrahydro-2-methylpyrido[3,4-b]indol-9-yl)-N,N-dimethylacetamide] yielded an inhibition at 1 µM [1] of 2%, an inhibition at 1 µM [2] of -4% and an inhibition at 1 µM [3] of -7%.

CN1CCc2c(n(CC(=O)NC3CCCCC3)c3ccc(Cl)cc23)C1 [Compound 17, 2-(6-chloro-1,2,3,4-tetrahydro-2-methylpyvrido[3,4-b]indol-9-yl)-N-cyclohexylacetamide] was tested, and the inhibition at 1 µM [1] was 18%, the inhibition at 1 µM [2] was 17% and the inhibition at 1 µM [3] was 14%.

With CN1CCc2c(n(CC(=O)N(C)C3CCCCC3)c3ccc(Cl)cc23)C1 [Compound 18, 2-(6-chloro-1,2,3,4-tetrahydro-2-methylpyrido[3,4-b]indol-9-yl)-N-cyclohexyl-N-methylacetamide] the inhibition at 1 µM [1] was 21%, the inhibition at 1 µM [2] was 4% and the inhibition at 1 µM [3] was 19%.

COC(=O)Cn1c2c(c3cc(C)ccc31)CCN(C)C2 [Compound 21, methyl 2-(1,2,3,4-tetrahydro-2,6-dimethylpyrido[3,4-b]indol-9-yl)acetate] was tested, and the inhibition at 1 µM [1] was -7%, the inhibition at 1 µM [2] was 0% and the inhibition at 1 µM [3] was 11%.

CN1CCc2c(n(CCCc3ccccc3)c3ccc(Cl)cc23)C1 [Compound 29, 6-chloro-2,3,4,9-tetrahydro-2-methyl-9-(3-phenylpropyl)-1H-pyrido[3,4-b]indole] was tested, and the inhibition at 1 µM [1] was 84%, the inhibition at 1 µM [2] was 96% and the inhibition at 1 µM [3] was 79%.

CN1CCc2c(n(CCN3CCCCC3)c3ccc(Cl)cc23)C1 [Compound 34, 6-chloro-2,3,4,9-tetrahydro-2-methyl-9-(2-(piperidin-1-yl)ethyl)-1H-pyrido[3,4-b]indole] gave an inhibition at 1 µM [1] of 56%, an inhibition at 1 µM [2] of 66% and an inhibition at 1 µM [3] of 38%.

CN1CCc2c(n(CCC3CCCC3)c3ccc(Cl)cc23)C1 [Compound 35, 6-chloro-9-(2-cyclopentylethyl)-2,3,4,9-tetrahydro-2-methyl-1H-pyrido[3,4-b]indole] gave an inhibition at 1 µM [1] of 60%, an inhibition at 1 µM [2] of 88% and an inhibition at 1 µM [3] of 65%.

With CC1CCN(C(=O)Cn2c3c(c4cc(Cl)ccc42)CCN(C)C3)CC1 [Compound 38, 2-(6-chloro-1,2,3,4-tetrahydro-2-methylpyrido[3,4-b]indol-9-yl)-1-(4-methylpiperidin-1-vyl)ethanone] the inhibition at 1 µM [1] was 25%, the inhibition at 1 µM [2] was 15% and the inhibition at 1 µM [3] was 15%.

Work on CN1CCc2c(n(CC(=O)N3CCCC3)c3ccc(Cl)cc23)C1 [Compound 40, 2-(6-chloro-1,2,3,4-tetrahydro-2-methylpyrido[3,4-b]indol-9-yl)-1-(pyrrolidin-1-yl)ethanone] yielded an inhibition at 1 µM [1] of 3%, an inhibition at 1 µM [2] of 1% and an inhibition at 1 µM [3] of 18%.

Work on Cc1ccc2c(c1)c1c(n2CCC(=O)N2CCCCC2)CN(C)CC1 [Compound 43, 3-(1,2,3,4-tetrahydro-2,6-dimethylpyrido[3,4-b]indol-9-yl)-1-(piperidin-1-yl)propan-1-one] yielded an inhibition at 1 µM [1] of 58%, an inhibition at 1 µM [2] of 42% and an inhibition at 1 µM [3] of -14%.

CN1CCc2c(n(CCCC(=O)N3CCCCC3)c3ccc(Cl)cc23)C1 [Compound 44, 4-(6-chloro-1,2,3,4-tetrahydro-2-methylpyrido[3,4-b]indol-9-yl)-1-(piperidin-1-yl)butan-1-one] gave an inhibition at 1 µM [1] of 61%, an inhibition at 1 µM [2] of 77% and an inhibition at 1 µM [3] of 20%.

With CN1CCc2c(n(CC(=O)O)c3ccc(Cl)cc23)C1 [Compound 52, 2-(6-chloro-1,2,3,4-tetrahydro-2-methylpyrido[3,4-b]indol-9-yl)acetic acid] the inhibition at 1 µM [1] was -11%, the inhibition at 1 µM [2] was 4% and the inhibition at 1 µM [3] was 9%.
